Reference: patent publication US11566007B2, “Ras inhibitors” (Revolution Medicines, Inc., priority 2019, dated 2023)
Read-outs that look alike come from different tables or passages of the source.

Assays:
[1] = biological target: KRAS Q61H (Homo sapiens (Human), UniProt P01116+P62937, Q61H); experiment: Ras-Raf (BRAF RBD) disruption / FRET / MOA assay, KRAS Q61H; assay type: biochemical; conditions: Ras-Raf disruption/FRET/MOA assay; class symbols; read-out: KRAS Q61H FRET data IC50
Procedure, shortened: (§1)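 Compounds (30 μM top final, 10-point 3-fold dilutions) incubated 3 h at 25° C with nucleotide-loaded Ras, cyclophilin A and BRAF RBD. Detection with 10 nM anti-His Eu-W1024 and 50 nM anti-GST allophycocyanin over another 1.5 h. Lowered TR-FRET ratio relative to DMSO wells gives IC50.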

[2] = test system: NCI-H358 cells (K-Ras G12C); experiment: Potency assay: pERK in NCI-H358 cells; assay type: cell-based, human
Procedure, shortened: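 4 h cpd, 37 °C; 10-pt 3-fold series, 10 mM DMSO top stock, duplicates. Readout pERK: AlphaLISA SureFire Ultra or In-Cell Western (IR-800CW secondary, DRAQ5 DNA stain). IC50, 4-PL fit vs log conc.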

[3] = biological target: NRAS Q61K (Homo sapiens (Human), UniProt P01111+P62937, Q61K); experiment: Ras-Raf (BRAF RBD) disruption / FRET / MOA assay, NRAS Q61K; assay type: biochemical; conditions: NRAS Q61K; Ras-Raf disruption/FRET/MOA assay; read-out: IC50* NRAS Q61K FRET data
Procedure, shortened: as §1

[4] = biological target: KRAS G12D (Homo sapiens (Human), UniProt P01116+P62937, G12D); experiment: Ras-Raf (BRAF RBD) disruption / FRET / MOA assay, KRAS G12D; assay type: biochemical; conditions: Ras-Raf disruption/FRET/MOA assay; class symbols; read-out: KRAS G12D FRET data IC50
Procedure, shortened: (§2)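 Compound-driven ternary complex of nucleotide-loaded Ras with cyclophilin A, disrupting BRAF RBD binding. 10-point 3-fold dilution from 30 μM final, 3 h at 25° C, then anti-His Eu-W1024 (10 nM) and anti-GST allophycocyanin (50 nM) for 1.5 h. IC50 from TR-FRET ratio decrease versus DMSO.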

[5] = biological target: NRAS G12C (Homo sapiens (Human), UniProt P01111+P62937, G12C); experiment: Ras-Raf (BRAF RBD) disruption / FRET / MOA assay, NRAS G12C; assay type: biochemical
Procedure, shortened: as §2

[6] = biological target: NRAS Q61R (Homo sapiens (Human), UniProt P01111+P62937, Q61R); experiment: Ras-Raf (BRAF RBD) disruption / FRET / MOA assay, NRAS Q61R; assay type: biochemical; conditions: NRAS Q61R; Ras-Raf disruption/FRET/MOA assay; read-out: IC50* NRAS Q61R FRET data
Procedure, shortened: as §1

[7] = Homo sapiens, NCI-H358, H358 KRAS G12C, read-out: pERK EC50
[8] = read-out: IC50* NRAS G12C FRET data
[9] = Homo sapiens, NCI-H358, read-out: pERK EC50

Sequence of NRAS Q61R (P01111 whole entry Q61R): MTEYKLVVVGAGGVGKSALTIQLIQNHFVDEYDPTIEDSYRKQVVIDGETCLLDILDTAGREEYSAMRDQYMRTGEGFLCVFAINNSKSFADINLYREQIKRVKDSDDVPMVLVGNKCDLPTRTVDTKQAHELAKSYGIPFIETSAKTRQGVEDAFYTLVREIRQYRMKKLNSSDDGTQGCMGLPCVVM
Sequence of NRAS Q61R (P62937 whole entry): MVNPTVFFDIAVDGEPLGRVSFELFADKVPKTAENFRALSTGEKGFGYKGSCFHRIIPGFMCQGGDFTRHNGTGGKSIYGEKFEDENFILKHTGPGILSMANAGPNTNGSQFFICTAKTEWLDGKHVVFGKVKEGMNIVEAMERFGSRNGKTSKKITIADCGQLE
Sequence of NRAS Q61K (P01111 whole entry Q61K): as the sequence (P01111 whole entry Q61R) above, with R61K counted along it
Sequence of NRAS Q61K (P62937 whole entry): as the sequence (P62937 whole entry) above
Sequence of KRAS G12D (P01116-2 other isoform, or with tags, fused parts or gaps G12D): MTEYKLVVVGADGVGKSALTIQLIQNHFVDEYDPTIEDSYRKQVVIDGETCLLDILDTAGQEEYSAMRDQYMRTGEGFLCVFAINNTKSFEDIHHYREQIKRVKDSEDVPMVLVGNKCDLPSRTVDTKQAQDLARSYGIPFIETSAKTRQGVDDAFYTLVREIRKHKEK
Sequence of KRAS G12D (P62937 whole entry): as the sequence (P62937 whole entry) above
Sequence of KRAS Q61H (P01116-2 other isoform, or with tags, fused parts or gaps Q61H): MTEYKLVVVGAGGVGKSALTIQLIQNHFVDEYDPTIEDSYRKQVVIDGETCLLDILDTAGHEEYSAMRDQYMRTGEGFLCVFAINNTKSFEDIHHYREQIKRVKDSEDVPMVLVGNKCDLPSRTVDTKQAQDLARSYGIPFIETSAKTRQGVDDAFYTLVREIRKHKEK
Sequence of KRAS Q61H (P62937 whole entry): as the sequence (P62937 whole entry) above
Sequence of NRAS G12C (P01111 whole entry G12C): as the sequence (P01111 whole entry Q61R) above, with G12C, R61Q counted along it
Sequence of NRAS G12C (P62937 whole entry): as the sequence (P62937 whole entry) above

EC50 ([2]; H358 KRAS G12C, read-out: pERK EC50) [nM] | Structure (SMILES) | IC50 [1] [nM] | EC50 [2, 7] [nM] | IC50 [3] [nM] | IC50 [4] [nM] | IC50 [5, 8] [nM] | IC50 [6] [nM] | IC50 ([5]; IC50* NRAS G12C FRET data) [nM] | EC50 [2, 9] [nM]
– | C=CC(=O)N1CCOC2(CCN(C(=O)N(C)[C@H](C(=O)N[C@H]3C[C@H]4CN(CCO4)c4ccc5c(c4)c(c(-c4cccnc4[C@H](C)OC)n5CC)CC(C)(C)COC(=O)[C@@H]4CCCN(N4)C3=O)C(C)C)CC2)C1 [Example A564] | 100 to 1000 | < 5000 | 1000 to 10000 | 1000 to 10000 | 100 to 1000 | 1000 to 10000 | – | –
– | CC#CC(=O)N1CC2(CCN2C(=O)N(C)[C@H](C(=O)N[C@H]2Cc3nc(cs3)-c3ccc4c(c3)c(c(-c3cccnc3[C@H](C)OC)n4CC)CC(C)(C)COC(=O)[C@@H]3CCCN(N3)C2=O)C(C)C)C1 (atropisomer, axis not shown) [Example A655] | 10 to 100 | < 5000 | 10 to 100 | 1000 to 10000 | 100 to 1000 | 10 to 100 | – | –
– | CCn1c(-c2cccnc2[C@H](C)OC)c2c3cc(ccc31)-c1csc(n1)C[C@H](NC(=O)[C@H](C(C)C)N(C)C(=O)N1CCC13CN(C(=O)/C=C/CN1CCOCC1)C3)C(=O)N1CCC[C@H](N1)C(=O)OCC(C)(C)C2 (atropisomer, axis not shown) [Example A611] | 10 to 100 | < 5000 | 10 to 100 | 1000 to 10000 | 100 to 1000 | 10 to 100 | – | –
– | C=CC(=O)N1CC[C@H](C(=O)N(C)[C@H](C(=O)N[C@H]2Cc3cc(O)cc(c3)-c3ccc4c(c3)c(c(-c3ncn(C)c3[C@H](C)OC)n4CC)CC(C)(C)COC(=O)[C@@H]3CCCN(N3)C2=O)C(C)C)C1 [Example A301] | 1000 to 10000 | < 5000 | > 10000 | > 10000 | – | > 10000 | 100 to 1000 | –
– | C=CC(=O)N1CCC2(CCN(C(=O)N(C)[C@H](C(=O)N[C@H]3Cc4cccc(c4)-c4ccc5c(c4)c(c(-c4cccnc4[C@H](C)OC)n5CC)CC(C)(C)COC(=O)[C@@H]4CCCN(N4)C3=O)C(C)C)CC2)C1 (atropisomer, axis not shown) [Example A554] | 100 to 1000 | < 5000 | 100 to 1000 | 1000 to 10000 | 100 to 1000 | 100 to 1000 | – | –
– | CCn1c(-c2cccnc2[C@H](C)OC)c2c3cc(ccc31)N1CCC[C@@H](C[C@H](NC(=O)[C@H](C(C)C)N(C)C(=O)[C@H]3CCN(C(=O)C#CC(C)(C)N4CCC4)C3)C(=O)N3CCC[C@H](N3)C(=O)OCC(C)(C)C2)C1 (atropisomer, axis not shown) [Example A617] | > 10000 | < 5000 | > 10000 | > 10000 | 10 to 100 | > 10000 | – | –
– | C=CC(=O)N1CCOC2(CCN(C(=O)N(C)[C@H](C(=O)N[C@H]3Cc4cccc(n4)-c4ccc5c(c4)c(c(-c4cccnc4[C@H](C)OC)n5CC(F)(F)F)CC(C)(C)COC(=O)[C@@H]4CCCN(N4)C3=O)C(C)C)CC2)C1 (atropisomer, axis not shown) [Example A607, 4-acryloyl-N-((2S)-1-(((6^3S,4S)-1^2-(2-((S)-1-methoxyethyl)pyridin-3-yl)-10,10-dimethyl-5,7-dioxo-1^1-(2,2,2-trifluoroethyl)-6^1,6^2,6^3,6^4,6^5,6^6-hexahydro-1^1H-8-oxa-1(5,3)-indola-6(1,3)-pyridazina-2(2,6)-pyridinacycloundecaphane-4-yl)amino)-3-methyl-1-oxobutan-2-yl)-N-methyl-1-oxa-4,9-diazaspiro[5.5]undecane-9-carboxamide] | 100 to 1000 | < 5000 | 100 to 1000 | 1000 to 10000 | 100 to 1000 | 100 to 1000 | – | –
– | C=CC(=O)N1CCOC2(CCN(C(=O)N(C)[C@H](C(=O)N[C@H]3Cc4cc(C(F)F)cc(n4)-c4ccc5c(c4)c(c(-c4cccnc4[C@H](C)OC)n5CC(F)(F)F)CC(C)(C)COC(=O)[C@@H]4CCCN(N4)C3=O)C(C)C)CC2)C1 (atropisomer, axis not shown) [Example A541] | 100 to 1000 | < 5000 | 100 to 1000 | 1000 to 10000 | 100 to 1000 | 100 to 1000 | – | –
– | CCn1c(-c2cccnc2[C@H](C)OC)c2c3cc(ccc31)-c1cccc(c1)C[C@H](NC(=O)[C@@H](COC1CN(C(=O)C#CC(C)(C)O)C1)C(C)C)C(=O)N1CCC[C@H](N1)C(=O)OCC(C)(C)C2 (atropisomer, axis not shown) [Example A708] | 1000 to 10000 | < 5000 | > 10000 | > 10000 | 100 to 1000 | > 10000 | – | –
– | C=CC(=O)N1CC[C@H](C(=O)N(C)[C@H](C(=O)N[C@H]2Cc3cc(O)cc(c3)-c3ccc4c(c3)c(c(-c3cccnc3)n4[C@H](C)C#N)CC(C)(C)COC(=O)[C@@H]3CCCN(N3)C2=O)C(C)C)C1 [Example A193] | 100 to 1000 | – | 1000 to 10000 | > 10000 | 100 to 1000 | 1000 to 10000 | – | < 5000
– | C=CC(=O)N1CC[C@H](C(=O)N(C)[C@H](C(=O)N[C@H]2Cc3nc(ns3)-c3ccc4c(c3)c(c(-c3cccnc3[C@H](C)OC)n4CC)CC(C)(C)COC(=O)[C@@H]3CCCN(N3)C2=O)C(C)C)C1 (atropisomer, axis not shown) [Example A202] | 1000 to 10000 | < 5000 | 1000 to 10000 | > 10000 | 1000 to 10000 | > 10000 | – | –
– | C=CC(=O)N1CCCC2(CCN(C(=O)N(C)[C@H](C(=O)N[C@H]3Cc4nc(cs4)-c4ccc5c(c4)c(c(-c4cccnc4[C@H](C)OC)n5CC)CC(C)(C)COC(=O)[C@@H]4CCCN(N4)C3=O)C(C)C)CC2)C1 (atropisomer, axis not shown) [Example A635] | 100 to 1000 | < 5000 | 100 to 1000 | 1000 to 10000 | 100 to 1000 | 100 to 1000 | – | –
– | C=CC(=O)N1CCC(F)(C(=O)N(C)[C@H](C(=O)N[C@H]2C[C@H]3CN(CCO3)c3ccc4c(c3)c(c(-c3cccnc3[C@H](C)OC)n4CC)CC(C)(C)COC(=O)[C@@H]3CCCN(N3)C2=O)C(C)C)CC1 (atropisomer, axis not shown) [Example A722, 1-acryloyl-N-((2S)-1-(((6^3S,4S)-1^1-ethyl-1^2-(2-((S)-1-methoxyethyl)pyridin-3-yl)-10,10-dimethyl-5,7-dioxo-6^1,6^2,6^3,6^4,6^5,6^6-hexahydro-1^1H-8-oxa-2(4,2)-morpholina-1(5,3)-indola-6(1,3)-pyridazinacycloundecaphane-4-yl)amino)-3-methyl-1-oxobutan-2-yl)-4-fluoro-N-methylpiperidine-4-carboxamide] | 1000 to 10000 | < 5000 | 1000 to 10000 | 1000 to 10000 | 10 to 100 | 1000 to 10000 | – | –
< 5000 | C=CC(=O)N1CC[C@H](C(=O)N(C)[C@H](C(=O)N[C@H]2Cc3cc(O)cc(c3)-c3ccc4c(c3)c(c(-c3cccnc3[C@@H](OC)C3CC3)n4CC)CC(C)(C)COC(=O)[C@@H]3CCCN(N3)C2=O)C(C)C)C1 (atropisomer, axis not shown) [Example A207] | 10 to 100 | – | 100 to 1000 | 1000 to 10000 | 10 to 100 | 100 to 1000 | – | –
– | C=CC(=O)N1CC[C@]2(CCN2C(=O)N(C)[C@H](C(=O)N[C@H]2Cc3nc(cs3)-c3ccc4c(c3)c(c(-c3cccnc3[C@H](C)OC)n4CC)CC(C)(C)COC(=O)[C@@H]3CCCN(N3)C2=O)C(C)C)C1 (atropisomer, axis not shown) [Example A662] | 10 to 100 | < 5000 | 10 to 100 | 100 to 1000 | 10 to 100 | 100 to 1000 | – | –
– | CCn1c(-c2cccnc2[C@H](C)OC)c2c3cc(ccc31)-c1cccc(c1)C[C@H](NC(=O)[C@H](C(C)C)N1CC[C@]3(CCN(C(=O)C#C[C@@H]4COCCN4C)C3)C1=O)C(=O)N1CCC[C@H](N1)C(=O)OCC(C)(C)C2 (atropisomer, axis not shown) [Example A569] | 1000 to 10000 | – | > 10000 | > 10000 | 10 to 100 | > 10000 | – | < 5000
– | C=CC(=O)N1CCO[C@H]2CN(C(=O)N(C)[C@H](C(=O)N[C@H]3Cc4nc(n(C)n4)-c4ccc5c(c4)c(c(-c4cccnc4[C@H](C)OC)n5CC(F)(F)F)CC(C)(C)COC(=O)[C@@H]4CCCN(N4)C3=O)C(C)C)C[C@H]21 (atropisomer, axis not shown) [Example A575] | 100 to 1000 | < 5000 | 100 to 1000 | 1000 to 10000 | 10 to 100 | 100 to 1000 | – | –
